Article PMC12669040, “Tumour-specific STING agonist synthesis via a two-component prodrug system” (Nature Chemistry, 2025)
Several values for one entry are separate records, joined by “and”; a condition that tells them apart may be missing. Equal values may be shown once.

Columns and labels:
[1] = Colorimetric alkylation rate constant assay with TNB^2− as non-specific thiol; assay type: physicochemical; parameters: second-order: unit not given here; conditions: for remaining [B]: in µM
[2] = Colorimetric alkylation rate constant assay with thiol N1; assay type: physicochemical; conditions: for remaining [A]: N1 from calibration curve (N1 in uM); for remaining [A] / remaining [B]: in µM
[3] = Time 2891 sec, [B]0 = 250, Replicates 1-3
[4] = Time 3071 sec, [B]0 = 250, Replicates 1-3
[5] = Time 3252 sec, [B]0 = 250, Replicates 1-3
[6] = Time 3433 sec, [B]0 = 250, Replicates 1-3
[7] = Time 3613 sec, [B]0 = 250, Replicates 1-3

SMILES: C=CS(=O)(=O)Nc1cc2cc(C(=O)CCC(=O)O)sc2cc1OC [Compound E1]
- remaining [B] ([1]; Replicate 1, 723 sec, [B]0 = 250): 246.895
- remaining [B] ([1]; Replicate 1, 903 sec, [B]0 = 250): 246.517
- remaining [B] ([1]; Replicate 1, 1084 sec, [B]0 = 250): 246.063
- remaining [B] ([1]; Replicate 1, 1265 sec, [B]0 = 250): 245.71
- remaining [B] ([1]; Replicate 1, 1445 sec, [B]0 = 250): 245.231
- remaining [B] ([1]; Replicate 1, 1626 sec, [B]0 = 250): 244.866
- remaining [B] ([1]; Replicate 1, 1806 sec, [B]0 = 250): 244.513
- remaining [B] ([1]; Replicate 1, 1988 sec, [B]0 = 250): 243.833
- remaining [B] ([1]; Replicate 1, 2168 sec, [B]0 = 250): 243.543
- remaining [B] ([1]; Replicate 1, 2349 sec, [B]0 = 250): 242.9
- remaining [B] ([1]; Replicate 1, 2530 sec, [B]0 = 250): 242.61
- remaining [B] ([1]; Replicate 1, 2710 sec, [B]0 = 250): 242.169
- remaining [B] ([1]; Replicate 2, 542 sec, [B]0=250): 248.022
- remaining [B] ([1]; Replicate 2, 723 sec, [B]0=250): 247.165
- remaining [B] ([1]; Replicate 2, 903 sec, [B]0=250): 246.925
- remaining [B] ([1]; Replicate 2, 1084 sec, [B]0=250): 246.522
- remaining [B] ([1]; Replicate 2, 1265 sec, [B]0=250): 246.258
- remaining [B] ([1]; Replicate 2, 1445 sec, [B]0=250): 245.88
- remaining [B] ([1]; Replicate 2, 1626 sec, [B]0=250): 245.262
- remaining [B] ([1]; Replicate 2, 1806 sec, [B]0=250): 245.073
- remaining [B] ([1]; Replicate 2, 1988 sec, [B]0=250): 244.304
- remaining [B] ([1]; Replicate 2, 2168 sec, [B]0=250): 244.191
- remaining [B] ([1]; Replicate 2, 2349 sec, [B]0=250): 243.649
- remaining [B] ([1]; Replicate 2, 2530 sec, [B]0=250): 243.511
- remaining [B] ([1]; Replicate 2, 2710 sec, [B]0=250): 243.032
- remaining [B] ([1]; Replicate 3, 723 sec, [B]0=250): 248.495
- remaining [B] ([1]; Replicate 3, 903 sec, [B]0=250): 247.89
- remaining [B] ([1]; Replicate 3, 1084 sec, [B]0=250): 247.373
- remaining [B] ([1]; Replicate 3, 1265 sec, [B]0=250): 246.731
- remaining [B] ([1]; Replicate 3, 1445 sec, [B]0=250): 246.365
- remaining [B] ([1]; Replicate 3, 1626 sec, [B]0=250): 245.899
- remaining [B] ([1]; Replicate 3, 1806 sec, [B]0=250): 245.521
- remaining [B] ([1]; Replicate 3, 1988 sec, [B]0=250): 245.08
- remaining [B] ([1]; Replicate 3, 2168 sec, [B]0=250): 244.563
- remaining [B] ([1]; Replicate 3, 2349 sec, [B]0=250): 244.16
- remaining [B] ([1]; Replicate 3, 2530 sec, [B]0=250): 243.744
- remaining [B] ([1]; Replicate 3, 2710 sec, [B]0=250): 243.505
- second-order [1, 3]: 0.0003098 and 0.0002905 and 0.000349
- remaining [B] [1, 3]: 243.089 and 241.779 and 242.654
- second-order [1, 4]: 0.0003222 and 0.0003146 and 0.0003655
- remaining [B] [1, 4]: 242.547 and 241.413 and 242.377
- second-order [1, 5]: 0.0003374 and 0.0003303 and 0.0003793
- remaining [B] [1, 5]: 242.194 and 241.111 and 242.036
- second-order [1, 6]: 0.0003624 and 0.0003513 and 0.0004046
- remaining [B] [1, 6]: 241.728 and 240.556 and 241.482
- second-order [1, 7]: 0.0003733 and 0.000365 and 0.0004313
- remaining [B] [1, 7]: 241.426
- second-order ([1]; Time 3794 sec, [B]0 = 250, Replicates 1-3): 0.0003951 and 0.0003787 and 0.000436
- second-order ([1]; Time 3974 sec, [B]0 = 250, Replicates 1-3): 0.0004043 and 0.0004098 and 0.0004713
- second-order ([1]; Time 4155 sec, [B]0 = 250, Replicates 1-3): 0.0004287 and 0.0004139 and 0.0004754
- second-order ([1]; Time 4336 sec, [B]0 = 250, Replicates 1-3): 0.0004451 and 0.0004267 and 0.000504
- second-order ([1]; Time 4516 sec, [B]0 = 250, Replicates 1-3): 0.0004586 and 0.0004477 and 0.0005214
- second-order ([1]; Time 4697 sec, [B]0 = 250, Replicates 1-3): 0.000471 and 0.0004671 and 0.0005431
- second-order ([1]; Time 4878 sec, [B]0 = 250, Replicates 1-3): 0.000487 and 0.0004831 and 0.0005503
- second-order ([1]; Time 5058 sec, [B]0 = 250, Replicates 1-3): 0.0005055 and 0.0005004 and 0.0005698
- second-order ([1]; Time 5239 sec, [B]0 = 250, Replicates 1-3): 0.0005247 and 0.0005046 and 0.0005919
- second-order ([1]; Time 5419 sec, [B]0 = 250, Replicates 1-3): 0.000547 and 0.000531 and 0.0006054
- second-order ([1]; Time 5600 sec, [B]0 = 250, Replicates 1-3): 0.0005568 and 0.0005491 and 0.0006296
- second-order ([1]; Time 5781 sec, [B]0 = 250, Replicates 1-3): 0.0005744 and 0.0005674 and 0.0006477
- second-order ([1]; Time 5961 sec, [B]0 = 250, Replicates 1-3): 0.0005953 and 0.0005931 and 0.0006685
- remaining [A] ([2]; Replicate 1, time 576 sec): 47.8044
- remaining [B] ([2]; Replicate 1, time 576 sec, [B]0 = 250): 193.684
- second-order ([2]; Replicate 1, time 576 sec, second-order plot value): 0.003586
- remaining [A] ([2]; Replicate 1, time 606 sec): 46.4649
- remaining [B] ([2]; Replicate 1, time 606 sec, [B]0 = 250): 192.345
- second-order ([2]; Replicate 1, time 606 sec, second-order plot value): 0.003734
- remaining [A] ([2]; Replicate 2, time 576 sec): 30.5226
- remaining [B] ([2]; Replicate 2, time 576 sec, [B]0=250): 177.381
- second-order ([2]; Replicate 2, time 576 sec, second-order plot value): 0.005955
- remaining [A] ([2]; Replicate 2, time 606 sec): 29.3038
- remaining [B] ([2]; Replicate 2, time 606 sec, [B]0=250): 176.162
- second-order ([2]; Replicate 2, time 606 sec, second-order plot value): 0.006185
- remaining [A] ([2]; Replicate 3, time 576 sec): 37.5866
- remaining [B] ([2]; Replicate 3, time 576 sec, [B]0=250): 183.039
- second-order ([2]; Replicate 3, time 576 sec, second-order plot value): 0.00489
- remaining [A] ([2]; Replicate 3, time 606 sec): 36.1527
- remaining [B] ([2]; Replicate 3, time 606 sec, [B]0=250): 181.605
- second-order ([2]; Replicate 3, time 606 sec, second-order plot value): 0.005103
- remaining [B] ([2]; time 0 sec, [B]0 = 250, replicates 1-3): 244.616 and 236.007 and 232.398
- second-order ([2]; time 0 sec, replicates 1-3): 0.000777 and 0.0002138 and 0.0005945
- remaining [B] ([2]; time 30 sec, [B]0 = 250, replicates 1-3): 239.016 and 232.843 and 226.134
- second-order ([2]; time 30 sec, replicates 1-3): 0.001109 and 0.0004543 and 0.0007469
- remaining [B] ([2]; time 60 sec, [B]0 = 250, replicates 1-3): 231.981 and 229.623 and 220.975
- second-order ([2]; time 60 sec, replicates 1-3): 0.00141 and 0.0007862 and 0.0009101
- remaining [B] ([2]; time 91 sec, [B]0 = 250, replicates 1-3): 228.545 and 226.744 and 217.517
- second-order ([2]; time 91 sec, replicates 1-3): 0.001628 and 0.0009622 and 0.001063
- remaining [B] ([2]; time 121 sec, [B]0 = 250, replicates 1-3): 224.298 and 223.153 and 210.771
- second-order ([2]; time 121 sec, replicates 1-3): 0.002097 and 0.001194 and 0.001265
- remaining [B] ([2]; time 151 sec, [B]0 = 250, replicates 1-3): 215.18 and 221.016 and 204.96
- second-order ([2]; time 151 sec, replicates 1-3): 0.002555 and 0.001754 and 0.001392
- remaining [B] ([2]; time 182 sec, [B]0 = 250, replicates 1-3): 211.366 and 218.251 and 202.608
- second-order ([2]; time 182 sec, replicates 1-3): 0.002758 and 0.002017 and 0.001562
- remaining [B] ([2]; time 212 sec, [B]0 = 250, replicates 1-3): 208.552 and 215.829 and 199.773
- second-order ([2]; time 212 sec, replicates 1-3): 0.003017 and 0.002225 and 0.001719
- remaining [B] ([2]; time 242 sec, [B]0 = 250, replicates 1-3): 206.279 and 213.378 and 197.222
- second-order ([2]; time 242 sec, replicates 1-3): 0.003266 and 0.002402 and 0.001885
- remaining [B] ([2]; time 273 sec, [B]0 = 250, replicates 1-3): 203.276 and 211.041 and 194.671
- second-order ([2]; time 273 sec, replicates 1-3): 0.003532 and 0.002649 and 0.002052
- remaining [B] ([2]; time 303 sec, [B]0 = 250, replicates 1-3): 200.625 and 209.074 and 192.148
- second-order ([2]; time 303 sec, replicates 1-3): 0.003812 and 0.002882 and 0.002197
- remaining [B] ([2]; time 333 sec, [B]0 = 250, replicates 1-3): 197.649 and 207.193 and 190.108
- second-order ([2]; time 333 sec, replicates 1-3): 0.004053 and 0.00316 and 0.002343
- remaining [B] ([2]; time 364 sec, [B]0 = 250, replicates 1-3): 195.376 and 205.141 and 187.925
- second-order ([2]; time 364 sec, replicates 1-3): 0.004327 and 0.003387 and 0.002508
- remaining [B] ([2]; time 394 sec, [B]0 = 250, replicates 1-3): 193.158 and 203.203 and 186.139
- second-order ([2]; time 394 sec, replicates 1-3): 0.004565 and 0.003621 and 0.002671
- remaining [B] ([2]; time 424 sec, [B]0 = 250, replicates 1-3): 190.588 and 201.351 and 184.155
- second-order ([2]; time 424 sec, replicates 1-3): 0.004845 and 0.003909 and 0.002833
- remaining [B] ([2]; time 454 sec, [B]0 = 250, replicates 1-3): 188.694 and 199.783 and 182.426
- second-order ([2]; time 454 sec, replicates 1-3): 0.005104 and 0.004135 and 0.002976
- remaining [B] ([2]; time 485 sec, [B]0 = 250, replicates 1-3): 186.908 and 198.016 and 181.378
- second-order ([2]; time 485 sec, replicates 1-3): 0.005268 and 0.00436 and 0.003143
- remaining [B] ([2]; time 515 sec, [B]0 = 250, replicates 1-3): 185.014 and 196.591 and 179.79
- second-order ([2]; time 515 sec, replicates 1-3): 0.005529 and 0.004611 and 0.003284
- remaining [B] ([2]; time 545 sec, [B]0 = 250, replicates 1-3): 184.094 and 195.166 and 178.713
- second-order ([2]; time 545 sec, replicates 1-3): 0.005715 and 0.004739 and 0.003429
